Assays:
[1] = system: B16-OVA tumor; test: Vaccination of mice bearing established B16-OVA melanoma, tumor size; assay type: in vivo, C57BL/6 mice; details: mixed with irradiated B16-OVA
Method: Mice bearing a 7-d subcutaneous B16 melanoma transfected with a gene encoding OVA (B16-OVA) were vaccinated subcutaneously with 1) LL-37 alone; irradiated B16-OVA tumor (iB16-OVA); irradiated B16-OVA tumor mixed with […] CpG-2216 (iB16-OVA+CpG); irradiated B16-OVA tumor with […] LL-37 (iB16-OVA+LL-37). Tumor size was monitored by caliper every second day. Data represent mean of 4 mice per group.
We also performed vaccine studies using the B16 tumor model of melanoma, B16 is a highly aggressive tumor with low immunogenicity. B16 tumor cells can be transfected with ovalbumin (OVA) to provide an immunogen that allows easy tracking of the anti-tumor immune response. 3×10^5 B16-OVA tumor cells were implanted subcutaneously in the flank of C57BL/6 mice and allowed to grow. Seven days later mice were treated with a single subcutaneous injection of LL-37 mixed with irradiated B16-OVA tumor cells. Control injections included LL-37 alone, irradiated B16-OVA alone, or irradiated B16-OVA mixed with the synthetic TLR9 agonist CpG. A detailed method on the generation of these vaccines is provided in D2.1. Tumor size was monitored with a caliper and volumes estimated using the formula […]. The experiment was stopped 10 days after injection because all mice in the control group had died or their tumor had reached 20 mm in their maximal diameter.

[2] = system: U937; test: Binding and protection of DNA released by dying tumor cells (electrophoresis of supernatants); assay type: cell-based, human; details: irradiated tumor cells, 24 h culture
Method: (a) U937 were UV-irradiated to induce apoptosis and cultured for 24 h, or rendered necrotic by repeated freeze/thaw cycles and stained with Annexin V and PI to visualize apoptosis and necrosis. (b) 5×10^6 live U937 cells (lines 1+2), or apoptotic UV-irradiated U937 (lines 3+4) were cultured for 24 h either alone or in the presence of LL-37 ([…]) before cell free supernatant was collected. U397 were also lyzed by freeze-thaw cycles to induce primary necrosis and cultured for 1 h either alone or in the presence of LL-37 ([…]) before cell free supernatant was collected. 20 ul of the supernatants in buffer were loaded onto 1% agarose gel and the electrophoresis was ran for 1.5 hrs at 100V. The image was acquired with a Biorad gel imaging system.
LL-37 combined with dying tumor cells can bind tumor-derived self-DNA in-vitro. To test the ability of LL-37 to bind and protect self-DNA released by dying tumor cells, we generated apoptotic and necrotic tumor cells in the presence or absence of LL-37, and measured DNA contents in culture supernatants by electrophoresis. Primary necrosis induced by consecutive freeze and thaw cycles, and apoptosis with secondary necrosis induced by γ-irradiation at 20,000 rad followed by a 24 h culture (at 5×10^6 cells in 500 μl) were confirmed by Annexin plus PI staining (FIG. 26a).

[3] = system: human genomic DNA; test: Complex formation with DNA (ethidium bromide intercalation, size exclusion HPLC); assay type: binding
Source text: (A) Emission spectra of human genomic DNA intercalated with Ethimidium bromide in the presence of increasing doses of LL-37. (B) Size exclusion HPLC of LL-37 alone, mut-LL-37 alone or DNA premixed with LL-37 or mut-37. […] Absorbance scales are different to accommodate the DNA peak.

[4] = system: plasmacytoid dendritic cells (pDC); test: IFN-α and cytokine production by purified human pDC (ELISA of supernatants); assay type: cell-based
Source text: PDC from healthy donors were purified from freshly collected buffy coats. Briefly, PBMC were isolated by Ficoll-Hypaque density gradient centrifugation (GE Healthcare, Piscatway, N.J.) followed by positive sorting using anti-BDCA4-conjugated magnetic microbeads (Miltenyi Biotec, Auburn, Calif.). The recovered cells were stained with PE-Cy5-conjugated anti-CD4, APC-conjugated CD11c, and a cocktail of FITC-conjugated anti-CD3, anti-CD14, anti-CD16, anti-CD15, anti-CD20 and anti-CD56 (Lineage-FITC) (BD Pharmingen, San Diego, Calif.). The CD4+CD11c-Lin- (pDC precursors) were isolated by cell sorting. Purity was routinely >99%. PDC (5-10×10^4/well) were cultured in 96-well round-bottom plates in RPMI 1640 (GIBCO, Carlsbad, Calif.) supplemented with 10% FCS (Atlanta Biologicals, Lawrenceville, Ga.). Where indicated, pDC were stimulated with CpGA (1 μM), CpGB (1 μM), R837 (10 ug/ml), IRS (4 uM), non-CpG sequence (4 uM), and different concentrations of LL-37 and of human genomic DNA. To prepare LL-37.DNA complexes, CpGB, huDNA, non-CpG and LL-37 were mixed by inversion and incubated for 30 min at room temperature before being added to the cells.
Supernatants samples were taken after 18-24 h after addition of the stimuli. Human IFN-α was measured using a human IFN-α ELISA kit (PBL Biomedical Laboratories, New Brunswick, N.J.) according to the company's instructions. IL-6 and TNF-α were detected using a kit for human IL6 and TNF-α (R&D Systems), respectively.

[5] = system: B16 tumor; test: Intratumoral injection into established B16 melanoma, tumor size; assay type: in vivo, C57BL/6 mice
Method: Mice bearing a 7-d subcutaneous B16 melanoma were injected with […] of LL-37 once (single), or repeatedly for 3 days (3×). Control injections were done with PBS. Tumor size was monitored by caliper every second day. Data represent mean of 4 mice per group.
Intratumoral injection of LL-37 elicits potent anti-tumor activity. 3×10^5 B16 tumor cells were inoculated into shaved flanks of C57BL/6 mice. Tumors were allowed to grow for 7 days. On day 7, tumors were either injected with a single dose of LL-37 (100 μg), injected daily for 3 consecutive days with LL-37 or injected with saline as a control. Tumor size was monitored with a caliper and volumes estimated using the formula π/6×length×width^2. The experiment was stopped 12 days after injection because all mice in the control group had died or their tumor had reached 20 mm in their maximal diameter. […] Thus, intratumoral LL-37 injection induces potent anti-tumor activity.

LLGDFFRKSKEKIGKEFKRIVQRIKDFLRNLVPRTES [LL-37]
Adjuvant potency compared to CpGs (CpG-2216) [1]: more potent than CpGs
DNA detected in culture supernatants of dying tumor cells [2]: exclusively detected DNA in supernatants of irradiated tumor cells cultured with LL-37
Complex formation with DNA [3]: complexed with DNA
IFN-α in pDC stimulated with non-CpG-ODN sequences plus LL-37 [4]: induce significant levels of IFN-α
IFN-α production by pDC stimulated with nucleic acid alone or combined with LL-37, as labelled [4]: converts genomic DNA of human and bacterial origin into potent IFN-α inducers
IL-6 production by pDC ([4]; LL-37 10 μM): only induced IFN-α but not IL-6 or TNF-α
TNF-α production by pDC ([4]; LL-37 10 μM): only induced IFN-α but not IL-6 or TNF-α
IFN-α by pDC relative to phosphothiorate CpG-B alone ([4]; LL-37 added to phosphodiesteric or phosphothiorate CpG-B): approximately 10 fold
IFN-α produced by pDC (mean) ([4]; pDC cultured with LL-37, 10% serum in culture medium, n=10): 950 pg/ml
IFN-α produced by pDC (range) ([4]; pDC cultured with LL-37, n=10): 200-4000 pg/ml
Growth of established B16 tumor, single intratumoral injection ([5]; 100 μg on day 7): significantly delayed the growth of established B16 tumor
Anti-tumor response, repeated intratumoral injection ([5]; three consecutive days): showed a trend towards a better anti-tumor response

— patent US20120315290A1, “INHIBITORS OF LL-37 MEDIATED IMMUNE REACTIVITY TO SELF NUCLEIC ACIDS” (BOARD OF REGENTS, THE UNIVERSITY OF TEXAS SYSTEM, priority 2006, published 2012)
